How the values were obtained:
Type in all cases: cell-based
[1] = tested on: P-388 (suspension culture of a lymphoid neoplasm from DBA/2 mouse); assay: in vitro cytotoxic assay, P-388 cells; conditions: P388, 72 h, three days of incubation, approximate IC50 by growth vs control wells
Method: (§1) Cells were maintained in logarithmic phase of growth in Eagle's Minimum Essential Medium, with Earle's Balanced Salts, with 2.0 mM L-glutamine, with non-essential amino acids, without sodium bicarbonate (EMEM/neaa); supplemented with 10% Fetal Calf Serum (FCS), 10^−2 M sodium bicarbonate and 0,1 g/l penicillin-G+streptomycin sulfate.
(§2) A screening procedure has been carried out to determine and compare the antitumor activity of these compounds, using an adapted form of the method described by Bergeron et al. (Reference 3). The antitumor cells employed were P-388 (suspension culture of a lymphoid neoplasm from DBA/2 mouse), A-549 (monolayer culture of a human lung carcinoma), HT-29 (monolayer culture of a human colon carcinoma) and MEL-28 (monolayer culture of a human melanoma).
(§3) P-388 cells were seeded into 16 mm wells at 1×10^4 cells per well in 1 ml aliquots of MEM 5FCS containing the indicated concentration of drug. A separate set of cultures without drug was seeded as control growth to ensure that cells remained in exponential phase of growth. All determinations were carried out in duplicate. After three days of incubation at 37° C., 10% CO2 in a 98% humid atmosphere, an approximately IC50 was determined by comparing the growth in wells with drug to the growth in wells control.

[2] = tested on: A-549 (monolayer culture of a human lung carcinoma); assay: in vitro cytotoxic assay, A-549 cells; conditions: A549, 72 h, three days of incubation, Crystal Violet staining, approximate IC50
Method: as §1, §2
as §3, with “A-549, HT-29 and MEL-28” for “P-388”, “2×10^4” for “1×10^4”, “10FCS” for “5FCS”, “the wells were stained with 0.1% Crystal Violet. An” for “an”

[3] = tested on: HT-29 (monolayer culture of a human colon carcinoma); assay: in vitro cytotoxic assay, HT-29 cells; conditions: 72 h, three days of incubation, Crystal Violet staining, approximate IC50
Method: as §1, §2
as §3, with “A-549, HT-29 and MEL-28” for “P-388”, “2×10^4” for “1×10^4”, “10FCS” for “5FCS”, “the wells were stained with 0.1% Crystal Violet. An” for “an”

[4] = tested on: MEL-28 (monolayer culture of a human melanoma); assay: in vitro cytotoxic assay, MEL-28 cells; conditions: SK-MEL-28, 72 h, three days of incubation, Crystal Violet staining, approximate IC50
Method: as §1, §2
as §3, with “A-549, HT-29 and MEL-28” for “P-388”, “2×10^4” for “1×10^4”, “10FCS” for “5FCS”, “the wells were stained with 0.1% Crystal Violet. An” for “an”

C=C1CCC[C@@H]2[C@@](C)(CC[C@@]3(C)CCn4cnc5ncnc(c54)N3O)[C@H](C)CC[C@@]12C [Asmarine A]
IC50 [1]: 1.18 µM | IC50 [2]: 1.18 µM | IC50 [3]: 1.18 µM | IC50 [4]: 1.18 µM

C=C1CCC[C@H]2[C@@](C)(CC[C@@]3(C)CCn4cnc5ncnc(c54)N3O)[C@H](C)CC[C@@]12C [Asmarine B]
IC50 [1]: 0.24 µM | IC50 [2]: 0.12 µM | IC50 [3]: 0.12 µM | IC50 [4]: 0.24 µM

From patent publication US6420357B1, “Cytotoxic alkaloid derivatives including Asmarine A and B isolated from a sponge” (Instituto Biomar, S.A., priority 1997, dated 2002)
